According to patent US12208001B2, “Methods and systems for preventing or reducing stenosis in a subject receiving a graft” (The General Hospital Corporation, priority 2012, dated 2025):
Read-outs that look alike come from different tables or passages of the source.

Tests used:
[1] = tested on: capsular contracture following prosthetic implant placement; test: Pre-clinical model of capsular contracture following prosthetic implant placement, fibrin glue induced; assay type: in vivo, New Zealand white rabbits
Experimental: The effect of Photochemical Tissue Passivation in a pre-clinical model of capsular contracture following prosthetic implant placement was evaluated. Under general anesthesia, Nine New Zealand white rabbits received three, six cc smooth saline implants placed in the dorsal sub-panniculus soft tissue. Each Rabbit received one control implant and two experimental implants. Briefly, the subpanniculus camosus plane in the dorsum region was dissected and a single customized six cc saline smooth implant with pressure port valve (Allergan Inc., CA, USA) was placed. A total of three implants were placed on the dorsum of each rabbit. The control group consisted of an implant with no Fibrin Glue and no PTP treatment. Before implant placement, the pocket site of the PTP experimental group was treated with 2 ml 0.1% Rose Bengal in a phosphate buffered saline, and Was then exposed to green laser light at 532 nm from a continuous wave KTP laser (Laserscope Aura-I, San Jose, CA). The second experimental group consisted of an implant with Fibrin Glue only. Prior to implant placement, all experimental pockets were injected with five cc of fibrin glue, 500 |μl of 10% CaCl, 1000 units of thrombin in one milliliter of 50 mM TrisCl as a contracture inducing agent. The incisions were closed in two layers with subdermal 4-0 […] and 4-0 interrupted nylon sutures. Topical fibrin glue was applied to the implant pockets in all experimental groups to induce subsequent capsular contracture. Accordingly, the experimental groups can be summarized as follows: Group 1: Control group-“Standard Breast Augmentation” One pocket per Rabbit undergoing standard implant placement with no Fibrin Glue or Passivation. One six cc smooth saline implant was placed per pocket. The incisions were closed in two layers with subdermal 4-0 Vicryl and 4-0 interrupted nylon sutures. Group 2: Experimental group-“Fibrin Glue” only One dorsal pocket per Rabbit is dissected. Fibrin glue was injected into the implant pocket as a capsular contracture-inducing agent. One six cc smooth saline implants was placed per pocket. The incision was closed as above. Group 3: Experimental group-“Pre-implant Tissue Passivation” One dorsal pocket per Rabbit was dissected, Rose Bengal dye was applied. The pocket was exposed to green laser light at. 532 nm from. a continuous wave KT.? laser (Laserscope Aura-I, San Jose, CA). Fibrin glue was injected into the implant pocket as a capsular contracture-inducing agent. Following fibrin glue injection, one six cc smooth saline implant was placed per pocket. The incision was closed as above. Capsule specimens were fixed with 10% buffered formalin and embedded in paraffin. Sections were stained with both Masson Trichrome, and SMA antibody and evaluated histologically and capsular thickness was measured. […] In fact, the SMA pattern in capsules harvested from the treated groups resembled those, which had not been instilled with fibrin glue (FIG. 3).

[2] = tested on: rabbit model for capsular contraction; test: Pilot rabbit model for capsular contraction: sub-cutaneous pockets with fibrin glue, histology at two weeks; assay type: in vivo; settings: tissue harvested at two weeks; 0.1% Rose Bengal + 532 nm light (3 min at 350 mW) prior to fibrin glue; vs fibrin glue only
Experimental: (§1) A pilot experiment in a rabbit model for capsular contraction was developed. Three sub-cutaneous pockets were made by surgical incision on the upper rabbit flank. One pocket was left untreated and surgically closed (No fibrin glue). Of the remaining two, one was treated with Fibrin Glue only, and one received Fibrin Glue+RB (0.1% Rose Bengal)+532 nm light (3 min at 350 mW). Fibrin glue is known to produce a fibrotic reaction in this model. After two weeks all three pockets were surgically re-accessed and inspected. […] These cells also appear contained under layers of presumably, cross-linked collagen. A biodegradation assay was also performed. Pockets were treated as described above at both a low (1 J/cm^2) and high (25 J/cm^2) fluence. Fluence was measured using FieldMax II laser power meter (Coherent, Santa Clara, CA). Immediately following, the skin and fascia were removed. Treated and untreated fascia were biopsied with a six mm punch biopsy, weighed and subjected to digestion in a 1% collagenase (Sigma Aldrich. St. Louis, MO) solution at 37° C. Time for complete digestion (the lack of any visible fibers) was recorded for each sample and corrected by weight.

[3] = tested on: vein graft intimal hyperplasia; assay type: in vivo, Sprague-Dawley rats
Experimental: In vivo testing was done by placing a. reversed epigastric vein interposition graft in the femoral artery of Sprague-Dawley rats. Grafts were harvested after four weeks. A total of 16 rats underwent a femoral interposition graft with reversed epigastric vein. Half of the vein gratis (N=8) were treated with PTP using 25 J/cm^2 at fluence. Average operative time was two hours. Additional operative time for PTP was 4-5 minutes on average. There were three instances of surgical wound dehiscence between post-operative day one and two; one in the control group and two in the experimental group. These wounds were irrigated and resutured. None of the grafts were exposed. […] After four weeks, 100% of the vein grafts were patent. […] Histologic cross-sections of the mid-portion of the graft were analyzed using light microscopy. Intimal thickness was measured as the distance between the internal elastic lamina. and the vessel lumen.

connective tissue = tested on: connective tissue
From the text: In certain embodiments, a photoactive agent, e.g., Rose Bengal, can be applied, e.g., by brushing, dripping or spraying onto, or injecting into, tissue surfaces (e.g., a single surface in some cases) of a tissue prior to the application of electromagnetic energy, followed by irradiation at an irradiance of less than about 1 W/cm^2. Penetration of topically applied Rose Bengal is about 100 μm or less into connective tissue. […] Similarly, vein grafts or arteriovenous fistula can be prepared for therapeutic use by providing Rose Bengal to the tissue and irradiating the tissue at an irradiance of less than about 1 W/cm^2.

[4] = tested on: fascia of the implant pocket; test: Biodegradation assay: collagenase digestion of fascia; set-up: species or system rabbit
Experimental: as §1, with “weight. In vitro studies confirmed that photochemical tissue passivation, under the conditions that were subsequently used in the animal study, could successfully alter the fascia of the implant pocket. […]” for “weight.”

For O=C1OC2(c3cc(I)c(O)c(I)c3Oc3c2cc(I)c(O)c3I)c2c(Cl)c(Cl)c(Cl)c(Cl)c21 [PTP, Rose Bengal], the “capsular thickness compared to Fibrin Glue alone control (histology)” value ([1]; eight weeks, Fibrin Glue + Photochemical Tissue Passivation group) was “significant decrease in capsular thickness”, the “decrease in capsule thickness” value ([1]; eight weeks, compared to the controls) was 52% and the “deposition of smooth muscle actin (SMA immunohistochemistry)” value ([1]; eight weeks, treated pockets vs untreated pockets receiving fibrin glue) was “significantly less deposition of smooth muscle actin”. For the same compound, the “fibrohistiocystic cells, macrophages and synovial metaplasia” value ([1]; treated pockets) was “less fibrohistiocystic cells, macrophages and synovial metaplasia”, the “inflammation and vascularity within the capsule” value ([1]; treated pockets) was “decreased inflammation and vascularity” and the “inflammatory infiltrate within the implant pockets (histology)” value [2] was “less infiltrate”. The “Intimal Thickness” value ([3]; after four weeks, N = 8, Table 2) was 24 + 22 um, the “Medial thickness” value ([3]; after four weeks, N = 8, Table 3) was 141 + 40 um and the vein grafts patent ([3]; after four weeks, all grafts, treated and untreated) was 100%. For the same compound, the neointimal thickness ([3]; four weeks, PTP 25 J/cm^2, N=8) was 24+22 μm, the Medial thickness ([3]; four weeks, treated grafts) was 141 µm and the “instances of surgical wound dehiscence” value ([3]; rat, in vivo) was “two”. The “pseudoaneurysms or aneurysmal dilatation of the grafts” value ([3]; rat, in vivo) was “no pseudoaneurysms or aneurysmal dilatation”, the wound infections ([3]; rat, in vivo) was “no wound infections” and the “graft distention after vessel clamp removal” value ([3]; restored blood flow, compared to untreated controls) was “less distention”. For the same compound, the “smooth muscle hypertrophy and medial thickness” value ([3]; treated compared to untreated grafts) was “marked reduction in smooth muscle hypertrophy and medial thickness”, the “reduction in neointimal thickness” value ([3]; treated grafts vs untreated) was 70% and the “penetration into connective tissue” value (connective tissue) was no more than 100 μm. For the same compound, the “increase in degradation time (collagenase digestion)” value ([4]; 1% collagenase, 37° C, compared to untreated tissue) was 300% and the “effect of increasing the power of the laser on collagen cross-linking” value ([4]; high (25 J/cm^2) vs low (1 J/cm^2) fluence) was “did not increase collagen cross-linking”.
